ChEMBL document CHEMBL4507268 (2021)

Experiments:
Settings in all cases: Compound concentration 1000.0 nM
[1] = target: Phosphatidylinositol 4-kinase beta (Homo sapiens) (UniProt Q9UBF8)
[2] = target: Angiopoietin-1 receptor (Homo sapiens) (UniProt Q02763)
[3] = target: T1, Serine/threonine-protein kinase DCLK3 (Homo sapiens) (UniProt Q9C098)
T1 sequence (whole entry): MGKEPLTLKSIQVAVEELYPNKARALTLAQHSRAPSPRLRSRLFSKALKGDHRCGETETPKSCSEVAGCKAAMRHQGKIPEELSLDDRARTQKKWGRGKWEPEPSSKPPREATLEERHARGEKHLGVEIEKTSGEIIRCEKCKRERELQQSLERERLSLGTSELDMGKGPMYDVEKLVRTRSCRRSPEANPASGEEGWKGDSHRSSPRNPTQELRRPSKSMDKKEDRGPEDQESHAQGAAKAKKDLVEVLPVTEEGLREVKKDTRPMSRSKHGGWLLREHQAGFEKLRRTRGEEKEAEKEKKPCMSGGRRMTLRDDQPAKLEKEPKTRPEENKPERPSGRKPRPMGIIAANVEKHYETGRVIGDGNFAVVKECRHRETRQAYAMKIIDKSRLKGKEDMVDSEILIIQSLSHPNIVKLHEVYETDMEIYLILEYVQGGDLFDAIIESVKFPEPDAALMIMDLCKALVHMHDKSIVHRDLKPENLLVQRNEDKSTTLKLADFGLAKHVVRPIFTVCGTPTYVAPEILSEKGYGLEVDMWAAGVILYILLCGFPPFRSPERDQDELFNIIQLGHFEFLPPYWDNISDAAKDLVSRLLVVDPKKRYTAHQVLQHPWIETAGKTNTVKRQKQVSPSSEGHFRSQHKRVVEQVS

[4] = target: T2, Serine/threonine-protein kinase ULK2 (Homo sapiens) (UniProt Q8IYT8)
T2 sequence (whole entry): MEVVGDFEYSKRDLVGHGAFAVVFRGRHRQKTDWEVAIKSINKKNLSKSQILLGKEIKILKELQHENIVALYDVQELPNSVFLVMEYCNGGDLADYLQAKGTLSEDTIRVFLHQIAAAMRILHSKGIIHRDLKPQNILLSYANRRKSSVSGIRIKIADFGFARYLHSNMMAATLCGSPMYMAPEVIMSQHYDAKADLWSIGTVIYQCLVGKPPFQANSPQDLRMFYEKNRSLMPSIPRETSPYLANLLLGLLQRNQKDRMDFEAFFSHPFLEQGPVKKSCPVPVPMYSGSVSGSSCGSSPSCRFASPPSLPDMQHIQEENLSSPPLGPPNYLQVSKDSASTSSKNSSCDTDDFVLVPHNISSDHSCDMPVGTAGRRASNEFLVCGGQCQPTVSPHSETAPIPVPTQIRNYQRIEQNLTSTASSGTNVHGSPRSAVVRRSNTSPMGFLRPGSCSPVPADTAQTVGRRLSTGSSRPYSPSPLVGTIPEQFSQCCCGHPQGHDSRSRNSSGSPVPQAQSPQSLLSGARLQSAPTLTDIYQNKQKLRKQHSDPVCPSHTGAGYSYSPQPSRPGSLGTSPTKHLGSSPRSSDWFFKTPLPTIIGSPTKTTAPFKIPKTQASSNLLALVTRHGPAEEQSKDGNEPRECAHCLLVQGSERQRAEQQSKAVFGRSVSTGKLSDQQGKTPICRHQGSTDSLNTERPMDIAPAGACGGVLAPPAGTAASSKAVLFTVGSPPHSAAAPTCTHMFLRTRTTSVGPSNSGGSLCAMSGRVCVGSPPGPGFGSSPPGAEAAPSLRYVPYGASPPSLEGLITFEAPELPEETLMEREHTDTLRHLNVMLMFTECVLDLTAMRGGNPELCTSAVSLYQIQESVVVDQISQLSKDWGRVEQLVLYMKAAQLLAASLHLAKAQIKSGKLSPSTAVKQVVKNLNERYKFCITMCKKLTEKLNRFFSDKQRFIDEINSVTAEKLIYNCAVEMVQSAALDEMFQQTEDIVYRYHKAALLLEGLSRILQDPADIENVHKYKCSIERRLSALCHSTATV

[5] = test system: Mast/stem cell growth factor receptor Kit (Homo sapiens), P10721 [V559D]
Mast/stem cell growth factor receptor Kit (Homo sapiens), P10721 [V559D], sequence (P10721 whole entry V559D, canonical isoform): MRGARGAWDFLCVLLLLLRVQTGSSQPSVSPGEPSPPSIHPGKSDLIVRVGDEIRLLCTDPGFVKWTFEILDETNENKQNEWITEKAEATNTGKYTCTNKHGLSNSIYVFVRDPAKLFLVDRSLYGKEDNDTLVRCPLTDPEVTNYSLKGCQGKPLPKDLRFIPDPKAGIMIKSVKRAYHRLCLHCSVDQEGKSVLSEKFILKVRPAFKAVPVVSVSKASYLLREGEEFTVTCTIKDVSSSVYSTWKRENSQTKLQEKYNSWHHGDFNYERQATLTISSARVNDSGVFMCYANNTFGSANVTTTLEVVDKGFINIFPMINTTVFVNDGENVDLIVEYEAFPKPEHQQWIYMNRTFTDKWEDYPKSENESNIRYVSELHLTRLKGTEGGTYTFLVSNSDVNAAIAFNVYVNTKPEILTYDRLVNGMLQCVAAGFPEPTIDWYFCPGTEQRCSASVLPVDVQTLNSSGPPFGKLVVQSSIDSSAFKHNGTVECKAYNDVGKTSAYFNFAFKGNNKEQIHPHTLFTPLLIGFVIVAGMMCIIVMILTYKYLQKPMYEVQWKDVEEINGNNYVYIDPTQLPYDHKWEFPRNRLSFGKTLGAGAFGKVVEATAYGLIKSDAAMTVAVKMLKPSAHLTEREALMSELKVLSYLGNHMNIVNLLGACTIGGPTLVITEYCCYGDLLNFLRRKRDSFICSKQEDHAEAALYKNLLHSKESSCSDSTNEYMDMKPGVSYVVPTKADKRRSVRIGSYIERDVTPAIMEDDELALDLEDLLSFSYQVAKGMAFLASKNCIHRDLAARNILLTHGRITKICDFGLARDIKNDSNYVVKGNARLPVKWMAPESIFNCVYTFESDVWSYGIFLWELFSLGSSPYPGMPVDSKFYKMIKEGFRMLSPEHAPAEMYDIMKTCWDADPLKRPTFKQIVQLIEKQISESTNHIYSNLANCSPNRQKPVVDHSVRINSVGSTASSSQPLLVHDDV

[6] = test system: Phosphatidylinositol 4,5-bisphosphate 3-kinase catalytic subunit alpha isoform (Homo sapiens), P42336 [E545K]
Phosphatidylinositol 4,5-bisphosphate 3-kinase catalytic subunit alpha isoform (Homo sapiens), P42336 [E545K], sequence (P42336 whole entry E545K, canonical isoform): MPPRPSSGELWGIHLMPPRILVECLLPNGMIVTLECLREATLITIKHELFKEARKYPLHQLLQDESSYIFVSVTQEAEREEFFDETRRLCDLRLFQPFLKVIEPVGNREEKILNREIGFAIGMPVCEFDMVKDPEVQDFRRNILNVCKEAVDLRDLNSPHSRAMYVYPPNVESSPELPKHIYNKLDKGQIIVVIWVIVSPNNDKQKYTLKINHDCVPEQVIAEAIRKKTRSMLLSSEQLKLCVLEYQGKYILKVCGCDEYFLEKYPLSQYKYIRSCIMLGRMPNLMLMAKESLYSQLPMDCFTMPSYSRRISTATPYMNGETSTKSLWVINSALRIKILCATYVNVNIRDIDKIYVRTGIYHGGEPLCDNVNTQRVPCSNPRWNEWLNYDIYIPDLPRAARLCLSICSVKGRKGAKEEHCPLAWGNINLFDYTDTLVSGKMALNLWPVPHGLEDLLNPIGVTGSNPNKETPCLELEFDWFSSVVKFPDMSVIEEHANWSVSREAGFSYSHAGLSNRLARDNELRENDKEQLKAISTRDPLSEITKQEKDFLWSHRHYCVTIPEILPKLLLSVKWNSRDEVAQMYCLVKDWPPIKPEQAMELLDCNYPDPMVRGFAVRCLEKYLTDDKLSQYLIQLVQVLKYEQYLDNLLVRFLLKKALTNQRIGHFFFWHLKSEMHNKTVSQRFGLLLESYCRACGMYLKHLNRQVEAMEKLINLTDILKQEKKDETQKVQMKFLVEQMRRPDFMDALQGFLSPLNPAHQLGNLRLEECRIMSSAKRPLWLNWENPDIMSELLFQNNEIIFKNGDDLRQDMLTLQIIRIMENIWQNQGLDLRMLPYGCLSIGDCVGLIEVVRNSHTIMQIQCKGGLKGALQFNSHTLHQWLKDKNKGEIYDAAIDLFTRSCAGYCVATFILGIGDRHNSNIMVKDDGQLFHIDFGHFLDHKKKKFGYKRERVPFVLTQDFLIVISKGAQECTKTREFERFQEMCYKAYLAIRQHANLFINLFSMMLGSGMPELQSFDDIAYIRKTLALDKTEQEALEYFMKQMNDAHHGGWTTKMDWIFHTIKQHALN

[7] = test system: Tyrosine-protein kinase ABL1 (Homo sapiens), P00519 [H396P]
[8] = target: T3, SNF-related serine/threonine-protein kinase (Homo sapiens) (UniProt Q9NRH2)
T3 sequence (whole entry): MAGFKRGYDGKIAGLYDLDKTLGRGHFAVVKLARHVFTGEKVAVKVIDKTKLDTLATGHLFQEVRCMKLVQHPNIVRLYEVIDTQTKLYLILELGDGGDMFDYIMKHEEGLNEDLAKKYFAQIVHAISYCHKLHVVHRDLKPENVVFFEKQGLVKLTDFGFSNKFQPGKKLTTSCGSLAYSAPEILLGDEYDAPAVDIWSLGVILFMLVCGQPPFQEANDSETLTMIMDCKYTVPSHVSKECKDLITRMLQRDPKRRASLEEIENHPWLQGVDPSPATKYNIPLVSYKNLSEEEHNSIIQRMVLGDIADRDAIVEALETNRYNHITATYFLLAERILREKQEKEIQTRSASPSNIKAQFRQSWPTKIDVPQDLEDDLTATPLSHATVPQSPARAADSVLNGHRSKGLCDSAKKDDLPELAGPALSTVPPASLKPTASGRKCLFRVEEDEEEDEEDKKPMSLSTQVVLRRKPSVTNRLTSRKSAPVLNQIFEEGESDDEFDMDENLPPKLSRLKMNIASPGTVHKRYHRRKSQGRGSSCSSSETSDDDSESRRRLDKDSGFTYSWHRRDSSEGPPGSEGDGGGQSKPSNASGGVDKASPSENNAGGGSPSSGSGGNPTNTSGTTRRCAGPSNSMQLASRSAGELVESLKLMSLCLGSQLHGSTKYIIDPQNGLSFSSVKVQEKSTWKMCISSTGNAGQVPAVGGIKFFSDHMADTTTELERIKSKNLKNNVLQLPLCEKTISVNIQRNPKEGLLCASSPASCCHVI

[9] = target: Mitogen-activated protein kinase 3 (Homo sapiens) (UniProt P27361)
Mitogen-activated protein kinase 3 (Homo sapiens), sequence (P27361 whole entry): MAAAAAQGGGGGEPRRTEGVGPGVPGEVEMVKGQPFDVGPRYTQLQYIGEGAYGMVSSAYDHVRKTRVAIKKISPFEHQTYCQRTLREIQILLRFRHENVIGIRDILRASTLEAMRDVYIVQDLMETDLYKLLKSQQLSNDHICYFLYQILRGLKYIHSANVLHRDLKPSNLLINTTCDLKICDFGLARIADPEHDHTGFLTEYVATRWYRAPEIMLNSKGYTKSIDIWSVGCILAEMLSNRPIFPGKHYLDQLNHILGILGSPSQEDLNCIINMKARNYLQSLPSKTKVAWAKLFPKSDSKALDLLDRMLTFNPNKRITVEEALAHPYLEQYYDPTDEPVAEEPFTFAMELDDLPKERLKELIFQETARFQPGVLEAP

[10] = test system: Epidermal growth factor receptor (Homo sapiens), P00533 [L858R]
[11] = target: Non-receptor tyrosine-protein kinase TYK2 (Homo sapiens) (UniProt P29597)
Non-receptor tyrosine-protein kinase TYK2 (Homo sapiens), sequence (P29597 whole entry): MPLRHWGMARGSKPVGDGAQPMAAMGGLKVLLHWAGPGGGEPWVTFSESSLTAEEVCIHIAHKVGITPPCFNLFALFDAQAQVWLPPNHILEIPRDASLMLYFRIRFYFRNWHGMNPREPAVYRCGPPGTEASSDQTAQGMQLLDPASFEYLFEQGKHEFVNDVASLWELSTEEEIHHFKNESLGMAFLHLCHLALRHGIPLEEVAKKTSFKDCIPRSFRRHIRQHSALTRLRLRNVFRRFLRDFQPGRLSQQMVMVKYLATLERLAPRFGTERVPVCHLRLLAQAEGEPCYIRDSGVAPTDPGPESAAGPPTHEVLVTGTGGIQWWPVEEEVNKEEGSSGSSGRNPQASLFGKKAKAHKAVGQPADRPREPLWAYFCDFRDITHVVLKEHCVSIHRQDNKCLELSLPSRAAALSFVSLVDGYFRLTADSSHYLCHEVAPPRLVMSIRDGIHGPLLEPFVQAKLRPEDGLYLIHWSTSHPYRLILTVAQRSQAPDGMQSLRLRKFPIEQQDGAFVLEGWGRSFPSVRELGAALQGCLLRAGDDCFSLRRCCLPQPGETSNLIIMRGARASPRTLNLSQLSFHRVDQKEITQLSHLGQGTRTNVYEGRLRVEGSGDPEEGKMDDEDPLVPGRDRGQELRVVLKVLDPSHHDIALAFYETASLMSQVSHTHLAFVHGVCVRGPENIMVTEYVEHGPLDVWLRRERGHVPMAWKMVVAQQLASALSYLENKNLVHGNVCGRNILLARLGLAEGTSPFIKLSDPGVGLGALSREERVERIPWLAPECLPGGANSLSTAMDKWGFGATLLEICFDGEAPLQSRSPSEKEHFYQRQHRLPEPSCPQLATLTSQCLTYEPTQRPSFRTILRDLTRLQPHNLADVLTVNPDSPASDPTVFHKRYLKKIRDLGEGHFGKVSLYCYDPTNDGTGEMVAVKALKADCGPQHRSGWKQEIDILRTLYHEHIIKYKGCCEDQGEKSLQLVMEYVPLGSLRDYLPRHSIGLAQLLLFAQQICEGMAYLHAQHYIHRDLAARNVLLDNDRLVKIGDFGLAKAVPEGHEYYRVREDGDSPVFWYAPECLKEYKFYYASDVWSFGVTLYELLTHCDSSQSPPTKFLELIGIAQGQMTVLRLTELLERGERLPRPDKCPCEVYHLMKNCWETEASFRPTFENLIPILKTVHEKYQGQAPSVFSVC

Measured: residual activity

Phosphatidylinositol 4-kinase beta (Homo sapiens), sequence (Q9UBF8 2-816 limits assumed): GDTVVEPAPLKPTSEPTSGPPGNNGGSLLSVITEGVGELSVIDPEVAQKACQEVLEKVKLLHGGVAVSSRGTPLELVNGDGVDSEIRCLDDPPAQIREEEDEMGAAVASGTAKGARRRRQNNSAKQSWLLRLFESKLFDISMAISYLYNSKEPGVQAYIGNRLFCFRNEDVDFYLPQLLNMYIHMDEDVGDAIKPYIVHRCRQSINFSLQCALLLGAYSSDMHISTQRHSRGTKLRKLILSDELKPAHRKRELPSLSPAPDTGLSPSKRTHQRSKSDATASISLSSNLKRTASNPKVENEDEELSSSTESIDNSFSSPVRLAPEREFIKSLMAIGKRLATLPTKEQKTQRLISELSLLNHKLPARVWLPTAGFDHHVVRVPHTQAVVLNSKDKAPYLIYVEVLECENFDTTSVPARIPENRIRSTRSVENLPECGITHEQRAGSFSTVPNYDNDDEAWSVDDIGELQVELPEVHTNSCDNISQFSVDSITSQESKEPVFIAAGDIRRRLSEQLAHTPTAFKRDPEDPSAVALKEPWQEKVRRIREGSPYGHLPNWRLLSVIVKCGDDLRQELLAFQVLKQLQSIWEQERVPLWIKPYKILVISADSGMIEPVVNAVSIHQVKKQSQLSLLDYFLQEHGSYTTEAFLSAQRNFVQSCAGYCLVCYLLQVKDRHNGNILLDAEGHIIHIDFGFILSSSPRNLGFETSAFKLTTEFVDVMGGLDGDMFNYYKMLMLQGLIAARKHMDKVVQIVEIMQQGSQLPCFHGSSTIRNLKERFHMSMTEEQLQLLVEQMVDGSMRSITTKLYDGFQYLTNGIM

Cc1nc(C2CCN(C(=O)c3ccc(OC(F)(F)F)cc3N)CC2)c2ncc(N3CCN(C)CC3)cc2n1 [BAY-693]
inactive: [1] 84% | [2] 81% | [3] 98% | [4] 100% | [5] 93% | [6] 85% | [7] 89% | [8] 78% | [9] 98% | [10] 89% | [11] 88%

CN1CCN(c2cnc3c(C4CCN(C(=O)c5ccc(OC(F)(F)F)cc5N)CC4)ncnc3c2)CC1 [BAY-885]
inactive: [1] 96% | [2] 74% | [3] 91% | [4] 100% | [5] 99% | [6] 100% | [7] 100% | [8] 87% | [9] 100% | [10] 100% | [11] 100%
